Measured values as given in ChEMBL document CHEMBL6109044, “From challenges to solutions: A review of fourth-generation EGFR tyrosine kinase inhibitors to overcome the C797S triple mutation in non-small cell lung cancer” (Eur J Med Chem, 2025).
One block for each compound: values may come before it.

Assays:
[1] = system: A549; experiment: Antiproliferative activity against human A549 cells; assay type: functional, cell-based
[2] = molecular target: T1, Epidermal growth factor receptor (Homo sapiens, UniProt P00533, C797S/L858R/T790M); experiment: Inhibition of EGFR L858R/T790M/C797S triple mutant (unknown origin) at 20 nM relative to control
[3] = Antiproliferative activity against mouse Ba/F3 EGFR-Del19/T790M/C797S cells; assay type: functional, cell-based
[4] = cells; conditions: Mus musculus, Ba/F3 EGFR-T790M/C797S/L858R
[5] = Antiproliferative activity against mouse Ba/F3 EGFR-T790M/C797S/L858R cells assessed as reduction in cell growth incubated for 72 hrs by CCK-8 assay; assay type: functional, cell-based
[6] = Antiproliferative activity against mouse Ba/F3 EGFR-Del19/T790M/C797S cells assessed as reduction in cell growth incubated for 72 hrs by CCK-8 assay; assay type: functional, cell-based
[7] = system: NIH3T3; experiment: Antiproliferative activity against mouse NIH3T3 cells harboring EGFR del19/T790M/C797S assessed as reduction in cell growth measured for 4 to 7 days by CellTiter-Glo Luminescent assay; assay type: functional, cell-based
[8] = system: NIH3T3; experiment: Antiproliferative activity against mouse NIH3T3 cells harboring EGFR L858R/T790M/C797S assessed as reduction in cell growth measured for 4 to 7 days by CellTiter-Glo Luminescent assay; assay type: functional, cell-based
[9] = Antiproliferative activity against mouse Ba/F3 EGFR cells; assay type: functional, cell-based
[10] = molecular target: T2, Epidermal growth factor receptor (Homo sapiens, UniProt P00533); experiment: Inhibition of wild type EGFR (unknown origin) by HTRF assay
[11] = Antiproliferative activity against mouse Ba/F3 EGFR-Del19/T790M/C797S cells assessed as reduction in cell viability at 10 uM incubated for 72 hrs by MTT assay relative to control; assay type: functional
[12] = molecular target: T1, Epidermal growth factor receptor; experiment: Inhibition of EGFR L858R/T790M/C797S triple mutant (unknown origin)
[13] = molecular target: T2, Epidermal growth factor receptor; experiment: Inhibition of wild type EGFR (unknown origin)
[14] = Antiproliferative activity against human NCI-H1975 EGFR T790M/C797S/L858R cells; assay type: functional, cell-based
[15] = system: Epidermal growth factor receptor (Homo sapiens), P00533 [L858R,T790M,C797S]; conditions: dose 0.05 nM
[16] = system: Epidermal growth factor receptor (Homo sapiens), P00533 [L858R,T790M,C797S]; conditions: dose 200.0 nM, tested as the 2H-labelled form
[17] = system: Epidermal growth factor receptor (Homo sapiens), P00533 [L858R,T790M,C797S]; conditions: dose 1.0 nM
[18] = molecular target: Epidermal growth factor receptor (Homo sapiens, UniProt P00533, L858R/T790M); experiment: Inhibition of EGFR L858R/T790M double mutant (unknown origin)
[19] = molecular target: Epidermal growth factor receptor (Homo sapiens, UniProt P00533, C797S/EX19DEL/T790M); experiment: Inhibition of EGFR Del19/T790M/C797S triple mutant (unknown origin)

Chain of Epidermal growth factor receptor (Homo sapiens), P00533 [L858R,T790M,C797S] (P00533 whole entry T790M/C797S/L858R): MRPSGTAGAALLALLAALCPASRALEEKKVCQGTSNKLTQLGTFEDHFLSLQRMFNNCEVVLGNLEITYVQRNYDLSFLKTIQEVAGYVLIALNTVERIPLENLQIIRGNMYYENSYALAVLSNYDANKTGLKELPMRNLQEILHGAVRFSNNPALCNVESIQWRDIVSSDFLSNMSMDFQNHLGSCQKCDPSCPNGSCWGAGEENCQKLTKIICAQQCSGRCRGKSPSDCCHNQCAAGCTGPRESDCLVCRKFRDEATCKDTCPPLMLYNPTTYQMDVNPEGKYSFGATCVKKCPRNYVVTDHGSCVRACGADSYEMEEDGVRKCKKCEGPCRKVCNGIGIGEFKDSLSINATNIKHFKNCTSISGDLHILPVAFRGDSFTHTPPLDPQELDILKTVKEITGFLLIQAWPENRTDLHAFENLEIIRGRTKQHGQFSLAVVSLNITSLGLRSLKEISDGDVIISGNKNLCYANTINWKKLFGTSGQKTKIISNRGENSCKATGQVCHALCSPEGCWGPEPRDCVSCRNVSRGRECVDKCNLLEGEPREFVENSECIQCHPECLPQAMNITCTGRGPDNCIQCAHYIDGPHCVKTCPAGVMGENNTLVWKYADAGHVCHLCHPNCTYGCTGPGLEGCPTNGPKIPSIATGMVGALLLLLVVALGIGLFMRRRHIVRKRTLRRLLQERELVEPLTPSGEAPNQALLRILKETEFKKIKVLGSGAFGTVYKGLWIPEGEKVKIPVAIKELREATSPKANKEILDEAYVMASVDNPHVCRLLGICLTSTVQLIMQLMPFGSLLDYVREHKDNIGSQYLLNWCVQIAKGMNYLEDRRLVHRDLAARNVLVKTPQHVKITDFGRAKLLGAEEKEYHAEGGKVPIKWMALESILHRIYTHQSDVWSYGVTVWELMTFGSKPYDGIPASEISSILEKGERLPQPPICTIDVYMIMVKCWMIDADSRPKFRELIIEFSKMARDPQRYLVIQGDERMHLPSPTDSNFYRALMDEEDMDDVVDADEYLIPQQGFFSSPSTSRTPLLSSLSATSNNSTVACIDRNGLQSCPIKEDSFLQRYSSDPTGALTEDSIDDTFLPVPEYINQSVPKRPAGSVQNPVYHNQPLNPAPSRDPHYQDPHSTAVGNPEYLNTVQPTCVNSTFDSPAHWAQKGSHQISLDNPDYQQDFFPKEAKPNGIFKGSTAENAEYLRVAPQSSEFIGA
T2 sequence (P00533 whole entry): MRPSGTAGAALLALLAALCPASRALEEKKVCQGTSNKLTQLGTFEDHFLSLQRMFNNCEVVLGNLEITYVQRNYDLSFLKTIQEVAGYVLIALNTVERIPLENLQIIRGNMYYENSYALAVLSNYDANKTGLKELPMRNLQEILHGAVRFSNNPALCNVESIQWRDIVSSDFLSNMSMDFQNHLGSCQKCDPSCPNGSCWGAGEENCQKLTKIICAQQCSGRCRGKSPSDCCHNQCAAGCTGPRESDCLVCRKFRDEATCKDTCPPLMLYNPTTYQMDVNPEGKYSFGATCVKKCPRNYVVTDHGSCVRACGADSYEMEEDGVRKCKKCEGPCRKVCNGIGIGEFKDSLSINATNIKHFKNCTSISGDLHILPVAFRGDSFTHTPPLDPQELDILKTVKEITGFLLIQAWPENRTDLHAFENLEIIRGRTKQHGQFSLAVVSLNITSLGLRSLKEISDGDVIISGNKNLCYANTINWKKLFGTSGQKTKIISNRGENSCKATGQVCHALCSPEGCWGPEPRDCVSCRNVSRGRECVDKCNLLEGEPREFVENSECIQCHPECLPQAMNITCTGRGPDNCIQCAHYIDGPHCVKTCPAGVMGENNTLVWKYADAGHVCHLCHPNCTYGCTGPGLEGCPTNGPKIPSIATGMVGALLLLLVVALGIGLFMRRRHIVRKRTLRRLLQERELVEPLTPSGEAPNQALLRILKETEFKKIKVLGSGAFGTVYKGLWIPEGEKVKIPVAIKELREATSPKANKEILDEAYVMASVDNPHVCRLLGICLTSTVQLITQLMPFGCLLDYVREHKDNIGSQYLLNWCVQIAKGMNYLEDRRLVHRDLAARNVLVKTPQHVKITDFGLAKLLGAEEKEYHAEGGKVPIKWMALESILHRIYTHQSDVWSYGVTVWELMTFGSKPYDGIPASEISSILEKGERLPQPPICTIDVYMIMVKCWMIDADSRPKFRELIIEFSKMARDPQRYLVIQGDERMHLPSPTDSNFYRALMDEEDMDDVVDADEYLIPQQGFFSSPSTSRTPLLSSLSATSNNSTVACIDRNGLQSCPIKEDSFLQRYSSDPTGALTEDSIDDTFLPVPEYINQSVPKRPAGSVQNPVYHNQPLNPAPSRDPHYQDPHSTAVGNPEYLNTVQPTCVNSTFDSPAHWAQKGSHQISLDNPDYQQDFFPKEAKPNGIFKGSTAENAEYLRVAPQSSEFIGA
T1 sequence (P00533 25-1210 T790M/C797S/L858R limits assumed): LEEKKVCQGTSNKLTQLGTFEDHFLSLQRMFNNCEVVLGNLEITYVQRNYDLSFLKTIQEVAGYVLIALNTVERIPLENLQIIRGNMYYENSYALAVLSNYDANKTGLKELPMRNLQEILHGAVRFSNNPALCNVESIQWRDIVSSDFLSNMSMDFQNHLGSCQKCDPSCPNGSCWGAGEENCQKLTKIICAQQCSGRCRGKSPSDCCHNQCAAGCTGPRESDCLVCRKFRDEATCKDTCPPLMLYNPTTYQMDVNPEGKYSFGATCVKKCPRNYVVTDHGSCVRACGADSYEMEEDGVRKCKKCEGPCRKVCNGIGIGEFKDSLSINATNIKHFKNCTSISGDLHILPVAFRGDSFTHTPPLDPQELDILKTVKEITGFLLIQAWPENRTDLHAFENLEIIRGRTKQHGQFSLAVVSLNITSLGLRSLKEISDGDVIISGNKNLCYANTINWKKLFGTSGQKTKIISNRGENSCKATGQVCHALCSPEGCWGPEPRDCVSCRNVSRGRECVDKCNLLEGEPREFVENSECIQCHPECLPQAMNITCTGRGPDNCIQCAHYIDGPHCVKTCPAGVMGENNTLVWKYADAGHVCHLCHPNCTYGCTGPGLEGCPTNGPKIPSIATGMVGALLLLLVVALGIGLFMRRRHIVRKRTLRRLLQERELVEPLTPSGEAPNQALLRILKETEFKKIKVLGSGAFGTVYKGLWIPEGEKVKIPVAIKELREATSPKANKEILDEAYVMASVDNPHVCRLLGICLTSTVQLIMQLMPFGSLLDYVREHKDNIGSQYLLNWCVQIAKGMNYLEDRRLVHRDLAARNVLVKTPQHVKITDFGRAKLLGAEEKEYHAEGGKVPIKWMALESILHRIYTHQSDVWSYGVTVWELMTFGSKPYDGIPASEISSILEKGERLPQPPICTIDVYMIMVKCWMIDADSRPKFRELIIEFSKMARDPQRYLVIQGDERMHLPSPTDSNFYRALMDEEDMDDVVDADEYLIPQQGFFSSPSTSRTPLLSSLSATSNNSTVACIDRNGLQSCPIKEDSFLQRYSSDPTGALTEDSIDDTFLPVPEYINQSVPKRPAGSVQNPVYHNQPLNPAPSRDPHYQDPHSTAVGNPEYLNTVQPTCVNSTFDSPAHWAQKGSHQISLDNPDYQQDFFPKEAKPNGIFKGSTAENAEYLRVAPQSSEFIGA
Chain of Epidermal growth factor receptor (Homo sapiens, UniProt P00533, L858R/T790M) (P00533 25-1210 T790M/L858R limits assumed): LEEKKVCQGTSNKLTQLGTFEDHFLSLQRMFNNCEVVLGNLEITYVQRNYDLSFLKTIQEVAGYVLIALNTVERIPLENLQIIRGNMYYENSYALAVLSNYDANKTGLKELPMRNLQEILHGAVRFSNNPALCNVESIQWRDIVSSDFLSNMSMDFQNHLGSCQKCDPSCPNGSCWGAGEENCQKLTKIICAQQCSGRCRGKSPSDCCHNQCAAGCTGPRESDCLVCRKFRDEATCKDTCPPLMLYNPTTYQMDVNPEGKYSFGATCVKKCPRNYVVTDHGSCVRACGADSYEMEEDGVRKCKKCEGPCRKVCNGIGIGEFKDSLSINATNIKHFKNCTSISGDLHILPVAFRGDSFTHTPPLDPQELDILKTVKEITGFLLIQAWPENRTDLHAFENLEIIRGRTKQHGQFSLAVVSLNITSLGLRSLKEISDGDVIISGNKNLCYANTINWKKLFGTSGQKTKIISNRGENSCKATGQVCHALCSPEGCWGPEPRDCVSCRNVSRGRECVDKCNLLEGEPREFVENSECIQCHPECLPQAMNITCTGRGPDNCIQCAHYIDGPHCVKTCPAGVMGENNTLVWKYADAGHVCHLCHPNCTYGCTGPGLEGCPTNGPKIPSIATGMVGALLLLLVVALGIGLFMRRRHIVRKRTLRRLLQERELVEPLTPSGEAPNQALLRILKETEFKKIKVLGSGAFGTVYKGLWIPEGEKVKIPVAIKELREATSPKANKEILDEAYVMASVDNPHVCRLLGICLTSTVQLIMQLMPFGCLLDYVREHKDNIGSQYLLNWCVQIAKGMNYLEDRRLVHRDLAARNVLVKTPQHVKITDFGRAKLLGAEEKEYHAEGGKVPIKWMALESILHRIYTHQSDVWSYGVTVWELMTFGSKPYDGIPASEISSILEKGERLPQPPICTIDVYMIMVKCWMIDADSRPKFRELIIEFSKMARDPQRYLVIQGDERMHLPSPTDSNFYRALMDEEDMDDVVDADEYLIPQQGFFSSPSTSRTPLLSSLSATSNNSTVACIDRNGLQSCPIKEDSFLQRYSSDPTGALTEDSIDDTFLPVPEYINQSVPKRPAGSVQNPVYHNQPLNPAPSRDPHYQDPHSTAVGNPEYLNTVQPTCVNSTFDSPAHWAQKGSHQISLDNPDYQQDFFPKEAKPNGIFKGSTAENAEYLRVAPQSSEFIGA

IC50 [1]: 957 nM
inhibition [2]: 97.2%
IC50 [4]: 16 nM
Compound: [2H]C([2H])([2H])c1cc(Nc2ncc(Br)c(Nc3ccccc3NS(=O)(=O)C3CC3)n2)ccc1N1CCN(C([2H])([2H])[2H])CC1
IC50 [3]: 12 nM

Compound: C=CC(=O)Nc1cc(Nc2nccc(-c3cn(C)c4ccccc34)n2)c(OC)cc1N(C)CCN(C)C [OSIMERTINIB]
IC50 [5]: 4140 nM
IC50 [6]: 3380 nM
IC50 [7]: 1200 nM
IC50 [8]: 2700 nM
IC50 [3]: > 1000 nM
IC50 [4]: > 1000 nM
IC50 [9]: 171 nM

IC50 [10]: 0.4 nM
Compound: CCC(=O)Nc1cccc(-c2c(-c3ccc(N4CCN(C)CC4)cc3)[nH]c3ncnc(OCC(C)C)c23)c1

Compound: Oc1ccccc1-c1nc(NCC2CCOC2)c2ccccc2n1 (stereo not drawn)
Activity [11]: 91%

IC50 [12]: 88 nM
IC50 [13]: 16 nM
Compound: C=CC(=O)C1CCC[C@@H](n2nc(-c3ccc4ccccc4c3)c3c(N)ncnc32)C1 (stereo partly drawn)

Compound: N#Cc1ccc(O)c(-c2nc(NCc3ncccn3)c3ccccc3n2)c1
IC50 [14]: 1200 nM

inhibition ([15]; tested as the 2H-labelled form): 59%
inhibition [16]: 99%
inhibition ([17]; tested as the 2H-labelled form): 86.9%
Compound: Cc1cc(Nc2ncc(Br)c(Nc3ccccc3NS(=O)(=O)C3CC3)n2)ccc1N1CCN(C)CC1

IC50 [18]: 0.063 nM
IC50 [12]: 0.083 nM
Compound: CN1CCC(c2ccc(-c3ccc4c(c3)C(=O)N(C(C(=O)Nc3nccs3)c3cc(F)ccc3O)C4)cc2)CC1 (stereo not drawn)

IC50 [13]: 0.92 nM
Compound: CC(C)n1c2cc(Nc3ccnc(-c4cnn(S(=O)(=O)C5CC5)c4)n3)ncc2c2c(OCC(F)(F)F)cc(N3CCN(C)CC3)cc21
IC50 [7]: 20 nM
IC50 [8]: 45 nM

Compound: CCC(=O)N[C@H]1CC[C@@H](N2C(=O)N(c3ccccc3Cl)Cc3cnc(Nc4ccc(N5CCN(C)CC5)c(C)c4)nc32)CC1
IC50 [5]: 320 nM

IC50 [13]: > 50 nM
Compound: N#Cc1ccc(O)c(-c2nc(NCc3cccnc3)c3ccccc3n2)c1

IC50 [12]: 8 nM
IC50 [19]: 5 nM
IC50 [13]: 184 nM
Compound: COc1cc(N2CCC(N3CCN(C)CC3)CC2)ccc1Nc1ncc(Cl)c(Nc2ccccc2NS(C)(=O)=O)n1

inhibition [15]: 4.82%
inhibition [17]: 57%
IC50 [4]: 15.6 nM
Compound: COc1cc(N2CCC(N3CCN(C)CC3)CC2)ccc1Nc1ncc(Cl)c(Nc2ccccc2P(C)(C)=O)n1 [BRIGATINIB]
IC50 [3]: 139 nM

IC50 [4]: 43.3 nM
Compound: CCc1cc(Nc2ncc(Cl)c(Nc3ccc(C)c(C)c3P(C)(C)=O)n2)c(OC)cc1N1CC2(CCN(C)CC2)C1
IC50 [3]: 128 nM
IC50 [9]: > 1000 nM

Compound: CN1CCN(c2ccc(Nc3ncc(Cl)c(Nc4ccccc4P(C)(C)=O)n3)cc2Br)CC1
IC50 [5]: 90 nM
IC50 [6]: 120 nM
